Laboratory results: patent US20220220152A1, “BIVALENT ANTAGONISTS OF INHIBITORS OF APOPTOSIS PROTEINS” (Hepagene Therapeutics (HK) Limited, priority 2019, published 2022)

Tests used:
XIAP-BIR3 = molecular target: T1, XIAP-BIR3 (Homo sapiens, UniProt P98170); assay: XIAP-BIR3 fluorescence polarization binding assay; conditions: FP, probe AbuRPFK-5FAM (SM5F) 5 nM, XIAP-BIR3 40 nM, 60 min at 25° C.
T1 construct: XIAP-BIR3; purchased Reaction Biology APT-11-374
Procedure, shortened: (§1)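 Fluorescence polarization competition using 5-carboxyfluorescein-labelled peptide probe AbuRPFK-5FAM; protein and compound preincubated 15 min, probe added, then 60 min at 25° C.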

cIAP2-BIR3 = molecular target: T2, cIAP2-BIR3 (Homo sapiens, UniProt Q13489); assay: cIAP2-BIR3 fluorescence polarization binding assay; conditions: FP, probe AbuRPFK-5FAM (SM5F) 5 nM, cIAP2-BIR3 80 nM, 60 min at 25° C.
T2 construct: cIAP2-BIR3; purchased Reaction Biology APT-11-372
T2 sequence (Q13489 238-349 limits assumed): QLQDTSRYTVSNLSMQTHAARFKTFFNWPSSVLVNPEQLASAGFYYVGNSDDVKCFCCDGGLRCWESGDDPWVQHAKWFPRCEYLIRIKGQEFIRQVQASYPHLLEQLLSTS
Procedure, shortened: as §1

cIAP1-BIR3 = molecular target: T3, cIAP1-BIR3 (Homo sapiens, UniProt Q13490); assay: cIAP1-BIR3 fluorescence polarization binding assay; conditions: FP, probe AbuRPFK-5FAM (SM5F) 5 nM, cIAP1-BIR3 15 nM, 60 min at 25° C.
T3 construct: cIAP1-BIR3; purchased Reaction Biology APT-11-370
T3 sequence (Q13490 253-363 limits assumed): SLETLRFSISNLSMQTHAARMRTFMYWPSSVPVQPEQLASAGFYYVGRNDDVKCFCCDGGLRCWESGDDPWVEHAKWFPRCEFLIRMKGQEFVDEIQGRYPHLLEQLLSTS
Procedure, shortened: as §1

T1 sequence (P98170 241-356 limits assumed): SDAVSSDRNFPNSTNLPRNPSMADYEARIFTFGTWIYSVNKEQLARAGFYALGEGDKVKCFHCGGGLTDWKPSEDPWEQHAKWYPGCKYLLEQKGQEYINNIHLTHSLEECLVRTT

| Compound | IC50 (XIAP-BIR3) | IC50 (cIAP2-BIR3) | IC50 (cIAP1-BIR3) |
| --- | --- | --- | --- |
| CN[C@@H](C)C(=O)N[C@H](C(=O)N1CCC[C@H]1C(=O)N[C@@H]1CCOc2c(-c3cccc4c3OCC[C@H]4NC(=O)[C@@H]3CCCN3C(=O)[C@@H](NC(=O)[C@H](C)NC)C3CCCCC3)cccc21)C1CCCCC1 [Compound V-P, (S)-1-((S)-2-cyclohexyl-2-((S)-2-(methylamino)propanamido)acetyl)-N-((4R,4′R)-4′-((S)-1-((S)-2-cyclohexyl-2-((S)-2-(methylamino)propanamido)acetyl)pyrrolidine-2-carboxamido)-[8,8′-bichroman]-4-yl)pyrrolidine-2-carboxamide] | 10 to 100 nM | 10 to 100 nM | 1 to 10 nM |
| CN[C@@H](C)C(=O)N[C@H](C(=O)N1CCC[C@H]1C(=O)N[C@@H]1CCCc2c(-c3ccc(-c4cccc5c4CCC[C@H]5NC(=O)[C@@H]4CCCN4C(=O)[C@@H](NC(=O)[C@H](C)NC)C(C)C)cc3)cccc21)C(C)C [III-N, (2S)-1-[(2S)-3-methyl-2-[(2S)-2-(methylamino)propanamido]butanoyl]-N-[(1R)-5-[4-[(5R)-5-[(2S)-1-[(2S)-3-methyl-2-[(2S)-2-(methylamino)propanamido]butanoyl]pyrolidine-2-amido]-5,6,7,8-tetrahydronaphthalen-1-yl]phenyl]-1,2,3,4-tetrahydronaphthalen-1-yl]pyrrolidine-2-carboxamide] | 10 to 100 nM | 10 to 100 nM | 1 to 10 nM |
| CN[C@@H](C)C(=O)N[C@H](C(=O)N1CCC[C@H]1C(=O)N[C@@H]1CCCc2c(Oc3cccc4c3CCC[C@H]4NC(=O)[C@@H]3CCCN3C(=O)[C@@H](NC(=O)[C@H](C)NC)C3CCCCC3)cccc21)C1CCCCC1 [Compound X, (2S)-1-[(2S)-2-cyclohexyl-2-[(2S)-2-(methylamino)propanamido]acetyl]-N-[(1R)-5-[[(5R)-5-[(2S)-1-[(2S)-2-cyclohexyl-2-[(2S)-2-(methylamino)propanamido]acetyl]pyrrolidine-2-amido]-5,6,7,8-tetrahydronaphthalen-1-yl]oxy]-1,2,3,4-tetrahydronaphthalen-1-yl]pyrrolidine-2-carboxamide] | 10 to 100 nM | 10 to 100 nM | 1 to 10 nM |
| CC[C@H](NC(=O)[C@H](C)NC)C(=O)N1CCC[C@H]1C(=O)N[C@@H]1CCCc2c(OCCCCCOc3cccc4c3CCC[C@H]4NC(=O)[C@@H]3CCCN3C(=O)[C@H](CC)NC(=O)[C@H](C)NC)cccc21 [Compound I-D, (2S)-1-[(2S)-2-[(2S)-2-(methylamino)propanamido]butanoyl]-N-[(1R)-5-[(5-[[(5R)-5-[(2S)-1-[(2S)-2-[(2S)-2-(methylamino)propanamido]butanoyl]pyrrolidine-2-amido]-5,6,7,8-tetrahydronaphthalen-1-yl]oxy]pentyl)oxy]-1,2,3,4-tetrahydronaphthalen-1-yl]pyrrolidine-2-carboxamide] | 10 to 100 nM | 1 to 10 nM | 1 to 10 nM |
| CC[C@H](NC(=O)[C@H](C)NC)C(=O)N1CCC[C@H]1C(=O)N[C@@H]1CCCc2c(NC(=O)c3cccc4c3CCC[C@H]4NC(=O)[C@@H]3CCCN3C(=O)[C@H](CC)NC(=O)[C@H](C)NC)cccc21 [Compound VII-C, (2S)-1-[(2S)-2-[(2S)-2-(methylamino)propanamido]butanoyl]-N-[(1R)-5-[[(5R)-5-[(2S)-1-[(2S)-2-[(2S)-2-(methylamino)propanamido]butanoyl]pyrrolidine-2-amido]-5,6,7,8-tetrahydmnaphthalen-1-yl]carbamoyl]-1,2,3,4-tetrahydmnaphthalen-1-yl]pyrrolidine-2-carboxamide] | 10 to 100 nM | 10 to 100 nM | 1 to 10 nM |
| CN[C@@H](C)C(=O)N[C@@H](C)C(=O)N1CCC[C@H]1C(=O)N[C@@H]1CCCc2c(-c3ccc(-c4cccc5c4CCC[C@H]5NC(=O)[C@@H]4CCCN4C(=O)[C@H](C)NC(=O)[C@H](C)NC)cc3)cccc21 [Compound III-H, (2S)-1-[(2S)-2-[(2S)-2-(methylamino)propanamido]propanoyl]-N-[(1R)-5-[4-[(5R)-5-[(2S)-1-[(2S)-2-[(2S)-2-(methylamino)propanamido]propanoyl]pyrrolidine-2-amido]-5,6,7,8-tetrahydronaphthalen-1-yl]phenyl]-1,2,3,4-tetrahydronaphthalen-1-yl]pyrrolidine-2-carboxamide] | 100 to 1000 nM | 10 to 100 nM | 1 to 10 nM |
| (2S,4S)-1-((S)-2-cyclohexyl-2-((S)-2-(methylamino)propanamido)acetyl)-N—((R)-5-(2-(2-(((R)-5-((2S,4S)-1-((S)-2-cyclohexyl-2-((S)-2-(methylamino)propanamido)acetyl)-4-hydroxypyrrolidine-2-carboxamido)-5,6,7,8-tetrahydronaphthalen-1-yl)oxy)ethoxy) ethoxy)-1,2,3,4-tetrahydmnaphthalen-1-yl)-4-hydroxypyrrolidine-2-carboxamide Formic Acid [Compound II-C] | 10 to 100 nM | 10 to 100 nM | 1 to 10 nM |
| CN[C@@H](C)C(=O)N[C@H](C(=O)N1CCC[C@H]1C(=O)N[C@@H]1CCCc2c(Oc3cccc4c3CCC[C@H]4NC(=O)[C@@H]3CCCN3C(=O)[C@@H](NC(=O)[C@H](C)NC)C3CCOCC3)cccc21)C1CCOCC1 [Compound X-C, (S)-1-((S)-2-((S)-2-(methylamino)propanamido)-2-(tetrahydro-2H-pyran-4-yl)acetyl)-N—((R)-5-(((R)-5-((S)-1-((S)-2-((S)-2-(methylamino)propanamido)-2-(tetrahydro-2H-pyran-4-yl)acetyl)pyrrolidine-2-carboxamido)-5,6,7,8-tetrahydronaphthalen-1-yl)oxy)-1,2,3,4-tetrahydronaphthalen-1-yl)pyrrolidine-2-carboxamide] | 10 to 100 nM | 10 to 100 nM | 1 to 10 nM |
| CN[C@@H](C)C(=O)N[C@H](C(=O)N1CCC[C@H]1C(=O)N[C@@H]1CCCc2c(-c3ccc(-c4ccc(-c5cccc6c5CCC[C@H]6NC(=O)[C@@H]5CCCN5C(=O)[C@@H](NC(=O)[C@H](C)NC)C5CCCCC5)cc4)cc3)cccc21)C1CCCCC1 [Compound III-G, (S)-1-((S)-2-cyclohexyl-2-((S)-2-(methylamino)propanamido)acetyl)-N—((R)-5-(4′-((R)-5-((S)-1-((S)-2-cyclohexyl-2-((S)-2-(methylamino)propanamido)acetyl)pyrrolidine-2-carboxamido)-5,6,7,8-tetrahydronaphthalen-1-yl)-[1,1′-biphenyl]-4-yl)-1,2,3,4-tetrahydronaphthalen-1-yl)pyrrolidine-2-carboxamide] | 100 to 1000 nM | 10 to 100 nM | 1 to 10 nM |
| CN[C@@H](C)C(=O)N[C@@H](C)C(=O)N1CCC[C@H]1C(=O)N[C@@H]1CCCc2c(-c3cccc(-c4cccc5c4CCC[C@H]5NC(=O)[C@@H]4CCCN4C(=O)[C@H](C)NC(=O)[C@H](C)NC)c3)cccc21 [Compound III-C, (2S)-1-[(2S)-2-[(2S)-2-(methylamino)propanamido]propanoyl]-N-[(1R)-5-[3-[(5R)-5-[(2S)-1-[(2S)-2-[(2S)-2-(methylamino)propanamido]propanoyl]pyrrolidine-2-amido]-5,6,7,8-tetrahydmnaphthalen-1-yl]phenyl]-1,2,3,4-tetrahydmnaphthalen-1-yl]pyrrolidine-2-carboxamide] | 1 to 10 nM | 1 to 10 nM | 1 to 10 nM |
| CN[C@@H](C)C(=O)N[C@@H](C)C(=O)N1CCC[C@H]1C(=O)N[C@@H]1CCOc2c(-c3cccc4c3OCC[C@H]4NC(=O)[C@@H]3CCCN3C(=O)[C@H](C)NC(=O)[C@H](C)NC)cccc21 [Compound V-A, (2S)-1-[(2S)-2-[(2S)-2-(methylamino)propanamido]propanoyl]-N-[(4R)-8-[(4R)-4-[(2S)-1-[(2S)-2-[(2S)-2-(methylamino)propanamido]propanoyl]pyrrolidine-2-amido]-3,4-dihydro-2H-1-benzopyran-8-yl]-3,4-dihydro-2H-1-benzopyran-4-yl]pyrrolidine-2-carboxamide] | 100 to 1000 nM | 10 to 100 nM | 1 to 10 nM |
| CN[C@@H](C)C(=O)N[C@H](C(=O)N1CCC[C@H]1C(=O)N[C@@H]1CCCc2c(OCCCCCOc3cccc4c3CCC[C@H]4NC(=O)[C@@H]3CCCN3C(=O)[C@@H](NC(=O)[C@H](C)NC)C3CCOCC3)cccc21)C1CCOCC1 [Compound I-A, (S)-1-((S)-2-((S)-2-(methylamino)propanamido)-2-(tetrahydro-2H-pyran-4-yl)acetyl)-N—((R)-5-((5-(((R)-5-((S)-1-((S)-2-((S)-2-(methylamino)propanamido)-2-(tetrahydro-2H-pyran-4-yl)acetyl)pyrrolidine-2-carboxamido)-5,6,7,8-tetrahydronaphthalen-1-yl)oxy)pentyl)oxy)-1,2,3,4-tetrahydmnaphthalen-1-yl)pyrrolidine-2-carboxamide] | 10 to 100 nM | 1 to 10 nM | 1 to 10 nM |
| CN[C@@H](C)C(=O)N[C@H](C(=O)N1CCC[C@H]1C(=O)N[C@@H]1CCCc2c(Nc3cccc4c3CCC[C@H]4NC(=O)[C@@H]3CCCN3C(=O)[C@@H](NC(=O)[C@H](C)NC)C3CCOCC3)cccc21)C1CCOCC1 [Compound VI-A, (S)-1-((S)-2-((S)-2-(methylamino)propanamido)-2-(tetrahydro-2H-pyran-4-yl)acetyl)-N—((R)-5-(((R)-5-((S)-1-((S)-2-((S)-2-(methylamino)propanamido)-2-(tetrahydro-2H-pyran-4-yl)acetyl)pyrrolidine-2-carboxamido)-5,6,7,8-tetrahydronaphthalen-1-yl)amino)-1,2,3,4-tetrahydronaphthalen-1-yl)pyrrolidine-2-carboxamide] | 10 to 100 nM | 10 to 100 nM | 1 to 10 nM |
